For 4 compounds, viability, T/C results are on record in PubChem BioAssay AID1963831 (Molecular Pharmacology Branch, DTP, NCI, 2024).

The structures appear in SMILES notation.

What is called viability, T/C is the result in the treated group divided by that in the control group, in per cent.
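Also: spheroids exposed to compounds for seven days; 100% = DMSO vehicle control viability.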

For the first assay, the system named is 889142-216-R-J1-PDC complex spheroid viability. Description: Anticancer human tumor 889142-216-R-J1-PDC patient-derived bladder carcinoma cell line growth inhibition [POLQ]. To be noted: second compound 3.16 µM; first compound 0.1 µM; active compounds read low. The method, boiled down: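 Three-cell-type spheroids modelling solid tumor plus stroma served as the readout system; POL inhibitors were tested individually and in combination, concentration ranges set by clinical Cmax where known.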
Regarding `CC1COCCN1c1cc(C2(S(C)(=N)=O)CC2)nc(-c2ccnc3[nH]ccc23)n1` (configuration not stated) + Nc1ccc(C#CCN(C(=O)Cc2ncc(C(F)(F)F)cc2C(F)(F)F)c2ccc(F)cc2)nn1, the viability, T/C was 89.3%.
For `CCCS(=O)(=O)Nc1ccc(F)c(C(=O)c2c[nH]c3ncc(-c4ccc(Cl)cc4)cc23)c1F` + Nc1ccc(C#CCN(C(=O)Cc2ncc(C(F)(F)F)cc2C(F)(F)F)c2ccc(F)cc2)nn1, the viability, T/C was 92.1%.
Consider `COc1cccc(OCCCN)c1-c1cc(Nc2cnc(C#N)cn2)n[nH]1` + Nc1ccc(C#CCN(C(=O)Cc2ncc(C(F)(F)F)cc2C(F)(F)F)c2ccc(F)cc2)nn1, for which the viability, T/C was 48.9%.
For `O=C(c1cc(Cc2n[nH]c(=O)c3ccccc23)ccc1F)N1CCN(C(=O)C2CC2)CC1` + Nc1ccc(C#CCN(C(=O)Cc2ncc(C(F)(F)F)cc2C(F)(F)F)c2ccc(F)cc2)nn1, the viability, T/C is 92.4%.

The same assay, now with this note: second compound 3.16 µM; first compound 0.316 µM; active compounds read low.
Consider `CC1COCCN1c1cc(C2(S(C)(=N)=O)CC2)nc(-c2ccnc3[nH]ccc23)n1` (configuration not stated) + Nc1ccc(C#CCN(C(=O)Cc2ncc(C(F)(F)F)cc2C(F)(F)F)c2ccc(F)cc2)nn1, for which the viability, T/C is 72.1%.
On to `CCCS(=O)(=O)Nc1ccc(F)c(C(=O)c2c[nH]c3ncc(-c4ccc(Cl)cc4)cc23)c1F` + Nc1ccc(C#CCN(C(=O)Cc2ncc(C(F)(F)F)cc2C(F)(F)F)c2ccc(F)cc2)nn1, for which the viability, T/C is 116%.
In the case of `COc1cccc(OCCCN)c1-c1cc(Nc2cnc(C#N)cn2)n[nH]1` + Nc1ccc(C#CCN(C(=O)Cc2ncc(C(F)(F)F)cc2C(F)(F)F)c2ccc(F)cc2)nn1, the viability, T/C is 54%.
Regarding `O=C(c1cc(Cc2n[nH]c(=O)c3ccccc23)ccc1F)N1CCN(C(=O)C2CC2)CC1` + Nc1ccc(C#CCN(C(=O)Cc2ncc(C(F)(F)F)cc2C(F)(F)F)c2ccc(F)cc2)nn1, the viability, T/C was 90.1%.

The same assay, now with this note: second compound 3.16 µM; first compound 1 µM; active compounds read low.
Consider `CC1COCCN1c1cc(C2(S(C)(=N)=O)CC2)nc(-c2ccnc3[nH]ccc23)n1` (configuration not stated) + Nc1ccc(C#CCN(C(=O)Cc2ncc(C(F)(F)F)cc2C(F)(F)F)c2ccc(F)cc2)nn1, for which the viability, T/C is 59.2%.
`CCCS(=O)(=O)Nc1ccc(F)c(C(=O)c2c[nH]c3ncc(-c4ccc(Cl)cc4)cc23)c1F` + Nc1ccc(C#CCN(C(=O)Cc2ncc(C(F)(F)F)cc2C(F)(F)F)c2ccc(F)cc2)nn1: the viability, T/C is 94.2%.
Still for that read-out and setting: the result for `COc1cccc(OCCCN)c1-c1cc(Nc2cnc(C#N)cn2)n[nH]1` + Nc1ccc(C#CCN(C(=O)Cc2ncc(C(F)(F)F)cc2C(F)(F)F)c2ccc(F)cc2)nn1 reads 41.9%; that for `O=C(c1cc(Cc2n[nH]c(=O)c3ccccc23)ccc1F)N1CCN(C(=O)C2CC2)CC1` + Nc1ccc(C#CCN(C(=O)Cc2ncc(C(F)(F)F)cc2C(F)(F)F)c2ccc(F)cc2)nn1, 98.2%.

Still in this assay, the particulars now being: second compound 3.16 µM; first compound 3.16 µM; active compounds read low.
As for `CC1COCCN1c1cc(C2(S(C)(=N)=O)CC2)nc(-c2ccnc3[nH]ccc23)n1` (configuration not stated) + Nc1ccc(C#CCN(C(=O)Cc2ncc(C(F)(F)F)cc2C(F)(F)F)c2ccc(F)cc2)nn1, the viability, T/C is 53.9%.
Same read-out and setting: the result for `CCCS(=O)(=O)Nc1ccc(F)c(C(=O)c2c[nH]c3ncc(-c4ccc(Cl)cc4)cc23)c1F` + Nc1ccc(C#CCN(C(=O)Cc2ncc(C(F)(F)F)cc2C(F)(F)F)c2ccc(F)cc2)nn1 reads 92.5%.
`O=C(c1cc(Cc2n[nH]c(=O)c3ccccc23)ccc1F)N1CCN(C(=O)C2CC2)CC1` + Nc1ccc(C#CCN(C(=O)Cc2ncc(C(F)(F)F)cc2C(F)(F)F)c2ccc(F)cc2)nn1: the viability, T/C was 95.1%.

The assay is the same for the next values; noted with them: second compound 3.16 µM; first compound 10 µM; active compounds read low.
Consider `CC1COCCN1c1cc(C2(S(C)(=N)=O)CC2)nc(-c2ccnc3[nH]ccc23)n1` (configuration not stated) + Nc1ccc(C#CCN(C(=O)Cc2ncc(C(F)(F)F)cc2C(F)(F)F)c2ccc(F)cc2)nn1, for which the viability, T/C was 56.5%.
With `CCCS(=O)(=O)Nc1ccc(F)c(C(=O)c2c[nH]c3ncc(-c4ccc(Cl)cc4)cc23)c1F` + Nc1ccc(C#CCN(C(=O)Cc2ncc(C(F)(F)F)cc2C(F)(F)F)c2ccc(F)cc2)nn1, the viability, T/C is 47.9%.
For `O=C(c1cc(Cc2n[nH]c(=O)c3ccccc23)ccc1F)N1CCN(C(=O)C2CC2)CC1` + Nc1ccc(C#CCN(C(=O)Cc2ncc(C(F)(F)F)cc2C(F)(F)F)c2ccc(F)cc2)nn1, the viability, T/C was 62.8%.

The same assay, now with this note: second compound 10 µM; first compound 0.00316 µM; active compounds read low.
For the compound `COc1cccc(OCCCN)c1-c1cc(Nc2cnc(C#N)cn2)n[nH]1` + Nc1ccc(C#CCN(C(=O)Cc2ncc(C(F)(F)F)cc2C(F)(F)F)c2ccc(F)cc2)nn1, the viability, T/C was 85.8%.

Still in this assay, the particulars now being: second compound 10 µM; first compound 0.01 µM; active compounds read low.
As for `COc1cccc(OCCCN)c1-c1cc(Nc2cnc(C#N)cn2)n[nH]1` + Nc1ccc(C#CCN(C(=O)Cc2ncc(C(F)(F)F)cc2C(F)(F)F)c2ccc(F)cc2)nn1, the viability, T/C was 70.6%.

The same assay, now with this note: second compound 10 µM; first compound 0.0316 µM; active compounds read low.
Consider `CC1COCCN1c1cc(C2(S(C)(=N)=O)CC2)nc(-c2ccnc3[nH]ccc23)n1` (configuration not stated) + Nc1ccc(C#CCN(C(=O)Cc2ncc(C(F)(F)F)cc2C(F)(F)F)c2ccc(F)cc2)nn1, for which the viability, T/C is 107%.
Still for that read-out and setting: the result for `CCCS(=O)(=O)Nc1ccc(F)c(C(=O)c2c[nH]c3ncc(-c4ccc(Cl)cc4)cc23)c1F` + Nc1ccc(C#CCN(C(=O)Cc2ncc(C(F)(F)F)cc2C(F)(F)F)c2ccc(F)cc2)nn1 reads 93.2%; that for `COc1cccc(OCCCN)c1-c1cc(Nc2cnc(C#N)cn2)n[nH]1` + Nc1ccc(C#CCN(C(=O)Cc2ncc(C(F)(F)F)cc2C(F)(F)F)c2ccc(F)cc2)nn1, 55.8%.
As to `O=C(c1cc(Cc2n[nH]c(=O)c3ccccc23)ccc1F)N1CCN(C(=O)C2CC2)CC1` + Nc1ccc(C#CCN(C(=O)Cc2ncc(C(F)(F)F)cc2C(F)(F)F)c2ccc(F)cc2)nn1, the viability, T/C is 111%.

Staying with this assay, now noted: second compound 10 µM; first compound 0.1 µM; active compounds read low.
With `CC1COCCN1c1cc(C2(S(C)(=N)=O)CC2)nc(-c2ccnc3[nH]ccc23)n1` (configuration not stated) + Nc1ccc(C#CCN(C(=O)Cc2ncc(C(F)(F)F)cc2C(F)(F)F)c2ccc(F)cc2)nn1, the viability, T/C was 99.2%.
On the same count and under the same terms, the result for `CCCS(=O)(=O)Nc1ccc(F)c(C(=O)c2c[nH]c3ncc(-c4ccc(Cl)cc4)cc23)c1F` + Nc1ccc(C#CCN(C(=O)Cc2ncc(C(F)(F)F)cc2C(F)(F)F)c2ccc(F)cc2)nn1 reads 103%.
Same read-out and setting: as for `COc1cccc(OCCCN)c1-c1cc(Nc2cnc(C#N)cn2)n[nH]1` + Nc1ccc(C#CCN(C(=O)Cc2ncc(C(F)(F)F)cc2C(F)(F)F)c2ccc(F)cc2)nn1, the figure is 51.8%.
For the compound `O=C(c1cc(Cc2n[nH]c(=O)c3ccccc23)ccc1F)N1CCN(C(=O)C2CC2)CC1` + Nc1ccc(C#CCN(C(=O)Cc2ncc(C(F)(F)F)cc2C(F)(F)F)c2ccc(F)cc2)nn1, the viability, T/C was 110%.

Still in this assay, the particulars now being: second compound 10 µM; first compound 0.316 µM; active compounds read low.
Take `CC1COCCN1c1cc(C2(S(C)(=N)=O)CC2)nc(-c2ccnc3[nH]ccc23)n1` (configuration not stated) + Nc1ccc(C#CCN(C(=O)Cc2ncc(C(F)(F)F)cc2C(F)(F)F)c2ccc(F)cc2)nn1: the viability, T/C was 111%.
Turning to `CCCS(=O)(=O)Nc1ccc(F)c(C(=O)c2c[nH]c3ncc(-c4ccc(Cl)cc4)cc23)c1F` + Nc1ccc(C#CCN(C(=O)Cc2ncc(C(F)(F)F)cc2C(F)(F)F)c2ccc(F)cc2)nn1, the viability, T/C was 98.7%.
In the case of `COc1cccc(OCCCN)c1-c1cc(Nc2cnc(C#N)cn2)n[nH]1` + Nc1ccc(C#CCN(C(=O)Cc2ncc(C(F)(F)F)cc2C(F)(F)F)c2ccc(F)cc2)nn1, the viability, T/C is 61%.
In the case of `O=C(c1cc(Cc2n[nH]c(=O)c3ccccc23)ccc1F)N1CCN(C(=O)C2CC2)CC1` + Nc1ccc(C#CCN(C(=O)Cc2ncc(C(F)(F)F)cc2C(F)(F)F)c2ccc(F)cc2)nn1, the viability, T/C was 97.5%.

The same assay, now with this note: second compound 10 µM; first compound 1 µM; active compounds read low.
With `CC1COCCN1c1cc(C2(S(C)(=N)=O)CC2)nc(-c2ccnc3[nH]ccc23)n1` (configuration not stated) + Nc1ccc(C#CCN(C(=O)Cc2ncc(C(F)(F)F)cc2C(F)(F)F)c2ccc(F)cc2)nn1, the viability, T/C is 62.4%.
Take `CCCS(=O)(=O)Nc1ccc(F)c(C(=O)c2c[nH]c3ncc(-c4ccc(Cl)cc4)cc23)c1F` + Nc1ccc(C#CCN(C(=O)Cc2ncc(C(F)(F)F)cc2C(F)(F)F)c2ccc(F)cc2)nn1: the viability, T/C is 96.8%.
With `COc1cccc(OCCCN)c1-c1cc(Nc2cnc(C#N)cn2)n[nH]1` + Nc1ccc(C#CCN(C(=O)Cc2ncc(C(F)(F)F)cc2C(F)(F)F)c2ccc(F)cc2)nn1, the viability, T/C was 45.6%.
Same read-out and setting: the result for `O=C(c1cc(Cc2n[nH]c(=O)c3ccccc23)ccc1F)N1CCN(C(=O)C2CC2)CC1` + Nc1ccc(C#CCN(C(=O)Cc2ncc(C(F)(F)F)cc2C(F)(F)F)c2ccc(F)cc2)nn1 reads 90.9%.

The same assay, now with this note: second compound 10 µM; first compound 3.16 µM; active compounds read low.
Turning to `CC1COCCN1c1cc(C2(S(C)(=N)=O)CC2)nc(-c2ccnc3[nH]ccc23)n1` (configuration not stated) + Nc1ccc(C#CCN(C(=O)Cc2ncc(C(F)(F)F)cc2C(F)(F)F)c2ccc(F)cc2)nn1, the viability, T/C was 61%.
Turning to `CCCS(=O)(=O)Nc1ccc(F)c(C(=O)c2c[nH]c3ncc(-c4ccc(Cl)cc4)cc23)c1F` + Nc1ccc(C#CCN(C(=O)Cc2ncc(C(F)(F)F)cc2C(F)(F)F)c2ccc(F)cc2)nn1, the viability, T/C is 77.5%.
As to `O=C(c1cc(Cc2n[nH]c(=O)c3ccccc23)ccc1F)N1CCN(C(=O)C2CC2)CC1` + Nc1ccc(C#CCN(C(=O)Cc2ncc(C(F)(F)F)cc2C(F)(F)F)c2ccc(F)cc2)nn1, the viability, T/C is 76.3%.

The same assay, now with this note: second compound 10 µM; first compound 10 µM; active compounds read low.
For `CC1COCCN1c1cc(C2(S(C)(=N)=O)CC2)nc(-c2ccnc3[nH]ccc23)n1` (configuration not stated) + Nc1ccc(C#CCN(C(=O)Cc2ncc(C(F)(F)F)cc2C(F)(F)F)c2ccc(F)cc2)nn1, the viability, T/C was 48.4%.
On the same count and under the same terms, the result for `CCCS(=O)(=O)Nc1ccc(F)c(C(=O)c2c[nH]c3ncc(-c4ccc(Cl)cc4)cc23)c1F` + Nc1ccc(C#CCN(C(=O)Cc2ncc(C(F)(F)F)cc2C(F)(F)F)c2ccc(F)cc2)nn1 reads 59.2%.
As for `O=C(c1cc(Cc2n[nH]c(=O)c3ccccc23)ccc1F)N1CCN(C(=O)C2CC2)CC1` + Nc1ccc(C#CCN(C(=O)Cc2ncc(C(F)(F)F)cc2C(F)(F)F)c2ccc(F)cc2)nn1, the viability, T/C is 86.2%.
